# Experiments:
# [1] = Cytotoxicity against mouse BW5147 cells expressing H-2 k haplotype, CD3+ and TCRalphabeta assessed as cell proliferation at 10 ug/mL after 24 hrs by [3H]TdR incorporation assay relative to control; assay type: functional; conditions: read-out: Activity
# [2] = Cytotoxicity against mouse BW5147 cells expressing H-2 k haplotype, CD3+ and TCRalphabeta assessed as cell proliferation at 1 ug/mL after 24 hrs by [3H]TdR incorporation assay relative to control; assay type: functional; conditions: read-out: Activity
# [3] = Cytotoxicity against mouse BW5147 cells expressing H-2 k haplotype, CD3+ and TCRalphabeta assessed as cell proliferation at 100 ug/mL after 24 hrs by [3H]TdR incorporation assay relative to control; assay type: functional; conditions: read-out: Activity
# [4] = Cytotoxicity against mouse BW5147 cells expressing H-2 k haplotype, CD3+ and TCRalphabeta assessed as cell proliferation at 50 ug/mL after 24 hrs by [3H]TdR incorporation assay relative to control; assay type: functional; conditions: read-out: Activity
# [5] = Lipophilicity, log P of the compound; assay type: physicochemical; conditions: octanol/water
Compound,growth at 10 µg/mL [1],growth at 1 µg/mL [2],growth at 100 µg/mL [3],growth at 50 µg/mL [4],logP [5]
C=CCO[C@@H]1O[C@H](Cn2c(-c3ccc(Cl)cc3)n[nH]c2=S)[C@H]2OC3(CCCC3)O[C@@H]12,44%,49%,123%,70%,1.91
COc1cc(C2=NOC(CO[C@@H]3O[C@H](Cn4c(SCc5ccccc5)nnc4-c4ccc(Cl)cc4)[C@@H](O)[C@H]3O)C2)cc(OC)c1OC (mixture of isomers),210%,143%,-67%,-52%,1.17
C=CCO[C@@H]1O[C@H](Cn2c(-c3ccc(Cl)cc3)n[nH]c2=S)[C@@H](O)[C@H]1O,6%,-1.5%,2%,4.4%,0.18
COc1cc(C2=NOC(CO[C@@H]3O[C@H](CSc4ncn[nH]4)[C@H]4OC5(CCCC5)O[C@@H]34)C2)cc(OC)c1OC (mixture of isomers),-21%,-5%,-45%,-24%,0.9
C=CCO[C@@H]1O[C@H](Cn2c(SCc3ccccc3)nnc2-c2ccc(Cl)cc2)[C@H]2OC3(CCCC3)O[C@@H]12,0%,37%,–,-13%,1.63
COc1cc(C2=NOC(CO[C@@H]3O[C@H](Cn4c(SCc5ccccc5)nnc4-c4ccc(Cl)cc4)[C@H]4OC5(CCCC5)O[C@@H]34)C2)cc(OC)c1OC (mixture of isomers),60%,215%,-45%,-18%,1.97
COc1cc(C2=NOC(CO[C@@H]3O[C@H](CSc4ncn[nH]4)[C@@H](O)[C@H]3O)C2)cc(OC)c1OC (mixture of isomers),51%,93%,29%,43%,-0.52
C=CCO[C@@H]1O[C@H](CSc2ncn[nH]2)[C@H]2OC3(CCCC3)O[C@@H]12,-9%,-7%,-43%,-29%,1.95
C=CCO[C@@H]1O[C@H](CSc2ncn[nH]2)[C@@H](O)[C@H]1O,-3%,-2.4%,-38%,-14%,-2.45
